Experiments:
[1] = biological target: T1, wild-type FLT3 phosphorylation in Baf3 FLT3 cells (Homo sapiens, UniProt P36888); experiment: Cell-based FLT3 receptor ELISA; conditions: FLT ligand-induced FLT3 phosphorylation
T1 construct: host or cells: Baf3 (murine B cell lymphoma line)
T1 sequence (P36888 27-993): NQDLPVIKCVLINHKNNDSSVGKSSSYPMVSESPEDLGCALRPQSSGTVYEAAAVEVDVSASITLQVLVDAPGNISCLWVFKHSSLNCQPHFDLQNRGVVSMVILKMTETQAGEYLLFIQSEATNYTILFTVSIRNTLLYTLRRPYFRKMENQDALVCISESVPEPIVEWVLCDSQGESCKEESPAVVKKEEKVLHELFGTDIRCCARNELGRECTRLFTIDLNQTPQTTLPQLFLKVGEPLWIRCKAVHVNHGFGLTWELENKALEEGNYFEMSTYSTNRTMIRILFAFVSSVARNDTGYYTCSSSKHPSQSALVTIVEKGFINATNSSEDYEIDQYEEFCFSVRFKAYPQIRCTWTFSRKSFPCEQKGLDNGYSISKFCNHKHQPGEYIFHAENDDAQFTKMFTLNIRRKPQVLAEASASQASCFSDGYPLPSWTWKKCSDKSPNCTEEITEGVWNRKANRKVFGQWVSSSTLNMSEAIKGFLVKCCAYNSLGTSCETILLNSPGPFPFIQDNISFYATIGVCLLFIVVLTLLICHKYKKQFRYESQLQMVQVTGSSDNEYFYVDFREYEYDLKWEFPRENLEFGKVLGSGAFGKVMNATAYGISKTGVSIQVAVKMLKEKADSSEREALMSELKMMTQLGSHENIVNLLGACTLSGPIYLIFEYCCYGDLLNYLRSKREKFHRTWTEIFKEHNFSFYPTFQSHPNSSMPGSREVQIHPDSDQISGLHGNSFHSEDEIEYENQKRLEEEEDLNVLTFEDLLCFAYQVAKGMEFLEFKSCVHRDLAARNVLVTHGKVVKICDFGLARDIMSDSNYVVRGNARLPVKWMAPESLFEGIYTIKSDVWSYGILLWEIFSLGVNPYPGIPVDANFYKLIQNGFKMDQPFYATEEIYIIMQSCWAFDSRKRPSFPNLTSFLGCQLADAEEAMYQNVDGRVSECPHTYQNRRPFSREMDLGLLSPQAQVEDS
Protocol: Specific cellular inhibition of FLT ligand-induced wild-type FLT3 phosphorylation was measured in the following manner: Baf3 FLT3 cells overexpressing the FLT3 receptor were obtained from Dr. Michael Heinrich (Oregon Health and Sciences University). The Baf3 FLT3 cell lines were created by stable transfection of parental Baf3 cells (a murine B cell lymphoma line dependent on the cytokine IL-3 for growth) with wild-type FLT3. Cells were selected for their ability to grow in the absence of IL-3 and in the presence of FLT3 ligand.
Baf3 cells were maintained in RPMI 1640 with 10% FBS, penn/strep and 10 ng/ml FLT ligand at 37° C., 5% CO2. To measure direct inhibition of the wild-type FLT3 receptor activity and phosphorylation a sandwich ELISA method was developed similar to those developed for other RTKs (see Sadick, M D, Sliwkowski, M X, Nuijens, A, Bald, L, Chiang, N, Lofgren, J A, Wong W L T. Analysis of Heregulin-Induced ErbB2 Phosphorylation with a High-Throughput Kinase Receptor Activation Enzyme-Linked Immunsorbent Assay, Analytical Biochemistry. 1996; 235:207-214 and Baumann C A, Zeng L, Donatelli R R, Maroney A C. Development of a quantitative, high-throughput cell-based enzyme-linked immunosorbent assay for detection of colony-stimulating factor-1 receptor tyrosine kinase inhibitors. J Biochem Biophys Methods. 2004; 60:69-79.). 200 μL of Baf3FLT3 cells (1×10^6/mL) were plated in 96 well dishes in RPMI 1640 with 0.5% serum and 0.01 ng/mL IL-3 for 16 hours prior to 1 hour compound or DMSO vehicle incubation. Cells were treated with 100 ng/mL Flt ligand (R&D Systems Cat# 308-FK) for 10 min. at 37° C. Cells were pelleted, washed and lysed in 100 ul lysis buffer (50 mM Hepes, 150 mM NaCl, 10% Glycerol, 1% Triton-X-100, 10 mM NaF, 1 mM EDTA, 1.5 mM MgCl2, 10 mM NaPyrophosphate) supplemented with phosphatase (Sigma Cat# P2850) and protease inhibitors (Sigma Cat #P8340). Lysates were cleared by centrifugation at 1000×g for 5 minutes at 4° C. Cell lysates were transferred to white wall 96 well microtiter (Costar #9018) plates coated with 50 ng/well anti-FLT3 antibody (Santa Cruz Cat# sc-480) and blocked with SeaBlock reagent (Pierce Cat#37527). Lysates were incubated at 4° C. for 2 hours. Plates were washed 3× with 200 ul/well PBS/0.1% Triton-X-100. Plates were then incubated with 1:8000 dilution of HRP-conjugated anti-phosphotyrosine antibody (Clone 4G10, Upstate Biotechnology Cat#16-105) for 1 hour at room temperature. Plates were washed 3× with 200 ul/well PBS/0.1% Triton-X-100. Signal detection with Super Signal Pico reagent (Pierce Cat#37070) was done according to manufacturer's instruction with a Berthold microplate luminometer. All data points are an average of triplicate samples. […] Inhibition and IC50 data analysis was done with GraphPad Prism using a non-linear regression fit with a multiparamater, sigmoidal dose-response (variable slope) equation.

MV4-11 cells = experiment: Inhibition of MV4-11 cell proliferation (CellTiterGlo, 72 h); type: cell-based; conditions: Homo sapiens; 72 h growth inhibition
Protocol: To assess the cellular potency of the FLT3 inhibitors of Formula I′, FLT3 specific growth inhibition was measured in the leukemic cell line MV4-11 (ATCC Number: CRL-9591). […] MV4-11 cells cannot grow and survive without active FLT3ITD.
To measure proliferation inhibition by test compounds, the luciferase based CellTiterGlo reagent (Promega), which quantifies total cell number based on total cellular ATP concentration, was used. Cells are plated at 10,000 cells per well in 100 ul of in RPMI media containing penn/strep, 10% FBS and 1 ng/ml GM-CSF or 1 ng/ml IL-3 for MV4-11 and Baf3 cells respectively.
Compound dilutions or 0.1% DMSO (vehicle control) are added to cells and the cells are allowed to grow for 72 hours at standard cell growth conditions (37° C., 5% CO2). For activity measurements in MV4-11 cells grown in 50% plasma, cells were plated at 10,000 cells per well in a 1:1 mixture of growth media and human plasma (final volume of 100 μL). To measure total cell growth an equal volume of CellTiterGlo reagent was added to each well, according to the manufacturer's instructions, and luminescence was quantified. Total cell growth was quantified as the difference in luminescent counts (relative light units, RLU) of cell number at Day 0 compared to total cell number at Day 3 (72 hours of growth and/or compound treatment). One hundred percent inhibition of growth is defined as an RLU equivalent to the Day 0 reading. Zero percent inhibition was defined as the RLU signal for the DMSO vehicle control at Day 3 of growth. All data points are an average of triplicate samples. […] Inhibition and IC50 data analysis was done with GraphPad Prism using a non-linear regression fit with a multiparamater, sigmoidal dose-response (variable slope) equation.
MV4-11 cells express the FLT3 internal tandem duplication mutation, and thus are entirely dependent upon FLT3 activity for growth. […] In contrast, the Baf3 cell proliferation is driven by the cytokine IL-3 and thus are used as a non-specific toxicity control for test compounds.

Row | IC50 [1] | IC50 (MV4-11 cells) | SMILES
1 | 178 nM | 321 nM | COc1ccc2c(N3CCC(NC(=O)Nc4ccc(C(C)C)cc4)CC3)ncnc2c1 [Compound 65, 1-(4-Isopropyl-phenyl)-3-[1-(7-methoxy-quinazolin-4-yl)-piperidin-4-yl]-urea]
2 | 16 nM | 134 nM | COc1cc2ncnc(N3CCC(NC(=O)Nc4ccc(N5CCCC5)nc4)CC3)c2cc1OC [Compound 68, 1-[1-(6,7-Dimethoxy-quinazolin-4-yl)-piperidin-4-yl]-3-(6-pyrrolidin-1-yl-pyridin-3-yl)-urea]
3 | 4 nM | 177 nM | CC(C)c1ccc(NC(=O)NC2CCN(c3ncnc4cc(OCCN5CCCC5=O)ccc34)CC2)cc1 [Compound 74, 1-(4-Isopropyl-phenyl)-3-(1-{7-[2-(2-oxo-pyrrolidin-1-yl)-ethoxy]-quinazolin-4-yl}-piperidin-4-yl)-urea]
4 | 1 nM | 1 nM | CC(C)c1ccc(NC(=O)NC2CCN(c3ncnc4cc(OCCCN5CCN(C)CC5)ccc34)CC2)cc1 [Compound 75, 1-(4-Isopropyl-phenyl)-3-(1-{7-[3-(4-methyl-piperazin-1-yl)-propoxy]-quinazolin-4-yl}-piperidin-4-yl)-urea]
5 | 180 nM | 7 nM | COc1cc2ncnc(N3CCC(NC(=O)Nc4ccc(OC(C)C)cc4)CC3)c2cc1OC [Compound 58, 1-[1-(6,7-Dimethoxy-quinazolin-4-yl)-piperidin-4-yl]-3-(4-isopropoxy-phenyl)-urea]
6 | 30 nM | 245 nM | CC(C)c1ccc(NC(=O)NC2CCN(c3ncnc4cc(F)ccc34)CC2)cc1 [Compound 72, 1-[1-(7-Fluoro-quinazolin-4-yl)-piperidin-4-yl]-3-(4-isopropyl-phenyl)-urea]
7 | 46 nM | 172 nM | COc1cc2ncnc(N3CCCC(COC(=O)Nc4ccc(OC5CCCC5)cc4)C3)c2cc1OC (stereo not drawn) [Compound 57, (4-Cyclopentyloxy-phenyl)-carbamic acid 1-(6,7-dimethoxy-quinazolin-4-yl)-piperidin-3-ylmethyl ester]
8 | 109 nM | 208 nM | COCCOc1ccc2c(N3CCC(NC(=O)Nc4ccc(C(C)C)cc4)CC3)ncnc2c1 [Compound 73, 1-(4-Isopropyl-phenyl)-3-{1-[7-(2-methoxy-ethoxy)-quinazolin-4-yl]-piperidin-4-yl}-urea]
9 | 80 nM | 21 nM | CC(C)c1ccc(NC(=O)NC2CCN(c3ncnc4cc(OCCN5CCCC5=O)ccc34)C2)cc1 (stereo not drawn) [Compound 70, 1-(4-Isopropyl-phenyl)-3-(1-{7-[2-(2-oxo-pyrrolidin-1-yl)-ethoxy]-quinazolin-4-yl}-pyrrolidin-3-yl)-urea]
10 | 1 nM | 1 nM | COCCOc1ccc2c(N3CCC(NC(=O)Nc4ccc(C(C)C)cc4)C3)ncnc2c1 (stereo not drawn) [Compound 71, 1-(4-Isopropyl-phenyl)-3-{1-[7-(2-methoxy-ethoxy)-quinazolin-4-yl]-pyrrolidin-3-yl}-urea]
11 | 420 nM | 560 nM | COc1cc2ncnc(N3CCC(OC(=O)Nc4ccc(OC5CCCC5)cc4)CC3)c2cc1OC [Compound 55, (4-Cyclopentyloxy-phenyl)-carbamic acid 1-(6,7-dimethoxy-quinazolin-4-yl)-piperidin-4-yl ester]
12 | 1400 nM | 470 nM | COc1cc2ncnc(N3CCC(NC(=O)Nc4ccc(OC5CCCC5)cc4)CC3)c2cc1OC [Compound 67, 1-(4-Cyclopentyloxy-phenyl)-3-[1-(6,7-dimethoxy-quinazolin-4-yl)-piperidin-4-yl]-urea]
13 | 16 nM | 941 nM | COc1cc2ncnc(N3CCC(NC(=O)Nc4ccc(N(C)C)cc4)CC3)c2cc1OC [Compound 62, 1-[1-(6,7-Dimethoxy-quinazolin-4-yl)-piperidin-4-yl]-3-(4-dimethylamino-phenyl)-urea]
14 | 82 nM | 1700 nM | COc1cc2ncnc(N3CCC(COC(=O)Nc4ccc(C(C)C)cc4)CC3)c2cc1OC [Compound 22, (4-Isopropyl-phenyl)-carbamic acid 1-(6,7-dimethoxy-quinazolin-4-yl)-piperidin-4-ylmethyl ester]
15 | < 1 nM | 128 nM | CC(C)c1ccc(NC(=O)NC2CCN(c3ncnc4cc(F)ccc34)C2)cc1 (stereo not drawn) [Compound 69, 1-[1-(7-Fluoro-quinazolin-4-yl)-pyrrolidin-3-yl]-3-(4-isopropyl-phenyl)-urea]

Reference: patent US20060281771A1, “SYNERGISTIC MODULATION OF FLT3 KINASE USING AMINOQUINOLINE AND AMINOQUINAZOLINE KINASE MODULATORS” (priority 2005, published 2006)
